# From ChEMBL document CHEMBL3397010, “Design, synthesis, and biological evaluation of air-stable nafuredin-γ analogs as complex I inhibitors” (Bioorg Med Chem, 2015)
# Assay: Inhibition of electron transport protein complex 1 in Ascaris suum mitochondria assessed as reduction in rhodoquinol-fumarate reductase activity by measuring NADH oxidation using NADH, sodium fumarate and decyl-rhodoquinone
row,Compound,IC50 [nM]
1,CCc1ccc2ccc(Cc3cccc(/C=C/[C@@H](O)[C@]4(C)CCC(=O)O4)c3)cc2c1,550
2,CC(C)=CCC/C(C)=C/CC/C(C)=C/CC[C@@H](O)[C@]1(C)CCCO1,500
3,C/C(=C\CCC(C)C)CCCC/C=C/[C@@H](O)[C@]1(C)CCC(=O)O1,340
4,CC(C)=CCC/C(C)=C/CC/C(C)=C/CC[C@@H](O)[C@]1(C)CCC(=O)O1,820
5,CC[C@H](C)CC/C=C(\C)C[C@@H](C)CC/C=C/[C@@H](O)[C@]1(C)CCC(=O)O1,550
6,CC[C@H](C)/C=C/C=C(\C)C[C@@H](C)/C=C/C=C/[C@@H](O)[C@]1(C)C=C(O)C(=O)O1,6
7,C/C(=C\CCC(C)C)C[C@@H](C)CC/C=C/[C@@H](O)[C@]1(C)CCC(=O)O1,300
